Assay results reported in paper PMC6368403, “Identification of a bilirubin receptor that may mediate a component of cholestatic itch” (eLife, 2019).
“And” between values parts separate entries of the source, which are not always exact repeats. Identical values can stand only once.

Columns and labels:
[1] = tested on: mice; assay: Scratching bouts after subcutaneous injection into the nape of the neck / back; format: in vivo, mouse; conditions: for Scratching bouts binned according to 5 min intervals (time course of itch behavior): one column per mouse, values of a mouse sum to 1 (Fig 1B)
Method: All applicable behavioral tests were performed and analysed with the experimenter blind to genotype. […] On the day before the experiment, animals were placed in the test chamber for 30 min before being subjected to a series of three mock injections with 5 min break periods in between. On the day of the experiment, animals were first allowed to acclimatize to the test chamber for 10 min before injection. […] A bout of scratching was defined as a continuous scratching movement with either hindpaw directed at the area of the injection site. In the cheek injection model, a wipe was defined as a single forepaw stroking the site of the injection. Use of both forepaws on the face or cheek was considered as grooming behavior. […] For H1R block, 30 mg/kg of cetirizine HCl (pH 7.4) was given intraperitoneally thirty minutes prior to injection of bilirubin. Licking behavior was quantified in seconds and identified as the licking of the toes or footpad of the hind paw site of injection that was neither preceded nor followed by licking of any other portion of the body.

[2] = biological target: T1, MRGPRA1 (Mus musculus, UniProt Q91WW5); assay: Microscale thermophoresis binding to MRGPRA1; set-up: Transformed binding isotherm (mean of three experiments): unit not given here; conditions: for Transformed binding isotherm (mean of three experiments): MRGPRA1 (Fig 2E); for Binding to MRGPRA1: microscale thermophoresis
T1 construct: expressed in transfected cells
T1 sequence (Q91WW5 1-304): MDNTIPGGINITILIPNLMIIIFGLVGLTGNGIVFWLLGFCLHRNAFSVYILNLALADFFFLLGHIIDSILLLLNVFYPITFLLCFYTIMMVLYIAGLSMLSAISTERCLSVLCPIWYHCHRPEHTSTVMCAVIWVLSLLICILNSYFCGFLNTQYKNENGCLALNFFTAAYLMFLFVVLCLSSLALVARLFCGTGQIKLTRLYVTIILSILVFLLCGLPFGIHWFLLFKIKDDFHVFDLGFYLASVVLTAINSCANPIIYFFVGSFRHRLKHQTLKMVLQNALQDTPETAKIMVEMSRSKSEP
Method: Binding isotherms for MRGPRA1, MRGPRX4, and MRGRPC11 towards various ligands were determined by microscale thermophoresis with the NanoTemper monolith NT.115 instrument ([Duhr and Braun, 2006]). Ligands were pre-incubated with 10 µM of the GFP-tagged receptor of interest for 5 min at room temperature in binding buffer (20 mM Tris and 150 mM NaCl at pH 8.8). Receptors were crudely purified as a membrane fraction from cells stably expressing the receptor ([Vasavda et al., 2017]). Haem metabolites were freshly dissolved in 0.1 M NaOH in dim light and then diluted into assay buffer. Lyophilized BAM8-22 was dissolved in binding buffer. The pH of each ligand was evaluated prior to incubation with a receptor. Samples were loaded into NT.115 Hydrophobic-Treated Capillaries from NanoTemper. Microscale thermophoretic experiments were executed using 20% LED power and 15% MST power. KDs were calculated using the law of mass action with data from three independent experiments. Binding between bilirubin and receptors was evaluated purely thermophoretically, whereas binding between BAM8-22 and MRGPRC11 was evaluated by T-Jump. Samples with dramatic deviations in initial fluorescence were excluded.

[3] = biological target: T2, MRGPRX4 (Homo sapiens, UniProt Q96LA9); assay: [35S]GTPγS binding to MRGPRX4 membrane complexes; format: biochemical; conditions: 50 μM bilirubin
T2 construct: expressed in transfected cells
T2 sequence (Q96LA9 whole entry): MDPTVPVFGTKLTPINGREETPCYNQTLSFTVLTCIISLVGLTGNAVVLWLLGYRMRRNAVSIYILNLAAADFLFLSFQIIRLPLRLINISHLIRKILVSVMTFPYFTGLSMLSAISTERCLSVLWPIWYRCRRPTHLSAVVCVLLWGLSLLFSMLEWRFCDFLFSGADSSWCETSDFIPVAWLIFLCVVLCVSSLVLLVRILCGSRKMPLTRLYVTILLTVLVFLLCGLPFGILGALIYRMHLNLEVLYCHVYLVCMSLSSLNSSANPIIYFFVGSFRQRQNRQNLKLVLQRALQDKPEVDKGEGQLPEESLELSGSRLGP
Method: MRGPR activation was determined by measuring binding of a radiolabelled and non-hydrolyzable form of GTP, [^35S]guanosine-5’-(γ-thio)triphosphate ([^35S]GTPγS) as previously described ([Vasavda et al., 2017]). Briefly, 10 µg of crude membrane fractions were diluted into 175 µL assay buffer (50 mM HEPES, 5 mM MgCl2, 100 mM NaCl, 1 mM EDTA, 0.1% […]) supplemented with 10 µM GDP and incubated at room temperature for 5 min. Membranes were then incubated an additional 1 min in a final volume of 199 μL assay buffer supplemented with 50 μM bilirubin. Samples were then brought to 200 μL with the addition of 10 nM [^35S]GTPγS. Samples were incubated for 2 hr at 4°C with gentle agitation. The experiment was terminated by rapid filtration onto GF/B filters and washed three times with wash buffer (50 mM Tris-HCl, 5 mM MgCl2, and 50 mM NaCl at pH 7.4). Filters were then immersed in scintillation cocktail and counted. Nonspecific binding was determined by competition with 10 μM unlabelled GTPγS. GTPγS binding assays were performed as two independent experiments, in triplicate.

[4] = tested on: Mrgpr-cluster KO DRG neurons; assay: Ca2+ imaging of Mrgpr-cluster KO DRG neurons infected with lentivirus encoding Mrgpra1, MRGPRX4 or MRGPRX3; format: cell-based, mouse; conditions: 50 µM bilirubin (Fig 3J)
Method: DRGs were incubated with Fluo-4 AM 24 hr after dissociation (native genotype) or 48 hr after dissociation (virally transduced). Unless otherwise noted, cells were imaged for 20 seconds to establish a baseline before compounds were added. After 30 s, a 2 min wash was applied before addition of another substances. At the end of every imaging trial, 50 mM KCl was added as a positive control. […] For ruthenium red inhibitor experiments, neurons were incubated with 10 µM ruthenium red for 5 min prior to imaging. Percentage activated was determined as earlier described.
DRG neurons from all spinal levels were collected in cold DH10 media (90% Dulbecco’s modified Eagle’s medium (DMEM)/F-12, 10% FBS, penicillin (100 U/mL), and streptomycin (100 μg/mL)). DRGs were digested with a dispase (5 mg/ml)/collagenase type I (1 mg/ml) enzyme mixture at 37°C for 45 min. After trituration, cells were spun at 300 g and re-suspended in DH10 before being plated on glass coverslips coated with poly-D-lysine (0.5 mg/ml) and laminin (10 μg/ml, Invitrogen). DRGs were cultured with DH10 supplemented with 50 ng/mL NGF at 37°C.
Lentiviruses encoding various cDNA for MRGPRs were generated using psPAX2 and pMD2.G. Virus was pelleted by centrifugation at 100,000 g for 4 hr, gently washed with twice with DH10 medium, and suspended in DH10. One day after DRG isolation and culture, DRGs were infected with lentivirus […]. The following morning, medium was completely replaced with fresh DH10 supplemented with 50 ng/mL NGF. 24 hr after infection, cells were processed for calcium imaging.

Molecule	Transformed binding isotherm (mean of three experiments) ([2]; [Ligand] 3.05e-8 M)	Transformed binding isotherm (mean of three experiments) ([2]; [Ligand] 6.1e-8 M)	Transformed binding isotherm (mean of three experiments) ([2]; [Ligand] 1.221e-7 M)	Transformed binding isotherm (mean of three experiments) ([2]; [Ligand] 2.441e-7 M)	Transformed binding isotherm (mean of three experiments) ([2]; [Ligand] 4.883e-7 M)	Transformed binding isotherm (mean of three experiments) ([2]; [Ligand] 9.766e-7 M)	Transformed binding isotherm (mean of three experiments) ([2]; [Ligand] 1.9531e-6 M)	Transformed binding isotherm (mean of three experiments) ([2]; [Ligand] 3.9063e-6 M)	Transformed binding isotherm (mean of three experiments) ([2]; [Ligand] 7.8125e-6 M)	Transformed binding isotherm (mean of three experiments) ([2]; [Ligand] 1.5625e-5 M)	Transformed binding isotherm (mean of three experiments) ([2]; [Ligand] 3.125e-5 M)	Transformed binding isotherm (mean of three experiments) ([2]; [Ligand] 6.25e-5 M)	Transformed binding isotherm (mean of three experiments) ([2]; [Ligand] 0.000125 M)	Transformed binding isotherm (mean of three experiments) ([2]; [Ligand] 0.00025 M)	Transformed binding isotherm (mean of three experiments) ([2]; [Ligand] 0.0005 M)	Binding to MRGPRA1 [2]	Transformed binding isotherm (mean of three experiments) ([2]; [Ligand] 0.001 M)	other results
hemin	0	0	0	0	0	0	0	0	0	0	0	0	0	0	0	did not bind		Scratching behavior ([1]; metabolite injected into mice (Fig 1D)): did not induce scratching
C=CC1=C(C)/C(=C/c2[nH]c(Cc3[nH]c(/C=C4\NC(=O)C(C)=C4C=C)c(C)c3CCC(=O)NCCS(=O)(=O)O)c(CCC(=O)NCCS(=O)(=O)O)c2C)NC1=O [conjugated bilirubin, bilirubin ditaurate]			8.864	12.0246	-13.1442	10.2399	-8.006	-10.5584	-9.562	-5.789	-4.24	37.7812	5.5559	6.134	25.273	lower affinity than unconjugated bilirubin	43.2348	
C=CC1=C(C)/C(=C/c2[nH]c(Cc3[nH]c(/C=C4\NC(=O)C(C)=C4C=C)c(C)c3CCC(=O)O)c(CCC(=O)O)c2C)NC1=O [bilirubin, bilirubin IXα]	6.015	5.1124	3.41	3.271	-3.226	-3.391	7.109		1.334	2.3419	16.9295	43.5974	64.6366	80.7081	102.789		103.048	Scratching bouts ([1]; 60 μg bilirubin pre-incubated with 1% human serum albumin (+HSA), nape, WT mice (Fig 1A)): 7; Scratching of A1 KO animals versus WT mice ([1]; 60 µg injected): scratched significantly less than WT mice; Scratching of BVR KO mice ([1]; 150 µg chloroquine or 60 µg bilirubin, 30 min): scratched normally; Scratching bouts to chloroquine plus bilirubin ([1]; 1 mM chloroquine plus 500 µM bilirubin injected into back): Synergism of bilirubin with chloroquine pruritus; Less scratching of Mrgpr-cluster KO animals than wild type mice ([1]; bilirubin injection (Fig 1C)): approximately 75%; Scratching ([1]; bilirubin pre-incubated with excess human serum albumin): elicited fewer scratches; Scratching at the site of injection ([1]; pathophysiologic concentrations, s.c. into the nape): stimulated scratching in a dose-dependent manner; Scratching bouts binned according to 5 min intervals (time course of itch behavior) ([1]; time 5 min): 0 (10×) and 0.09677 and 0.08333 and 0.1304 and 0.2264 and 0.2353 and 0.07317; Scratching bouts binned according to 5 min intervals (time course of itch behavior) ([1]; time 10 min): 0.1786 and 0.5556 and 0.32 and 0.3226 and 0 (4×) and 0.1304 and 0.04 and 0.15 and 0.2642 and 0.1026 and 0.3529 and 0.2941 and 0.05128; Scratching bouts binned according to 5 min intervals (time course of itch behavior) ([1]; time 15 min): 0.25 and 0.4444 and 0.32 and 0.2258 and 0.1667 and 0.3913 and 0.66 and 0.1 and 0.1698 and 0.5116 and 0.2051 and 0.5 and 0.2941 and 0.2647 and 0.1951 and 0.2308; Scratching bouts binned according to 5 min intervals (time course of itch behavior) ([1]; time 20 min): 0.07143 and 0 (2×) and 0.16 and 0.06452 and 0.08333 and 0.3043 and 0.1 and 0.45 and 0.1509 and 0.4419 and 0.4872 and 0.1364 and 0.08824 and 0.2195 and 0.1026; Scratching bouts binned according to 5 min intervals (time course of itch behavior) ([1]; time 25 min): 0.07143 and 0 (3×) and 0.2 and 0.03226 and 0.3333 and 0.04348 and 0.06 and 0.15 and 0.04651 and 0.2727 and 0.1765 and 0.05882 and 0.3659 and 0.6154; Scratching bouts binned according to 5 min intervals (time course of itch behavior) ([1]; time 30 min): 0.4286 and 0 (5×) and 0.2581 and 0.3333 and 0.14 and 0.15 and 0.1887 and 0.2051 and 0.09091 and 0.1765 and 0.05882 and 0.1463; GTP binding to MRGPRX4 membrane complexes [3]: increased GTP binding; [35S]GTPγS binding ([3]; MRGPRX4 membrane complexes (Fig 2K)): 175 and 229 and 223; Percent activated neurons ([4]; MRGPRX4-infected Mrgpr-cluster KO DRG): 32%; Percent activated neurons ([4]; Mrgpra1-infected Mrgpr-cluster KO DRG): 14%; Percent activated neurons ([4]; uninfected Mrgpr-cluster KO DRG): 1.3%
